Measurements from US20240122867A1, “CORONAL PROTEIN-COATED NANOPARTICLES AND USES THEREOF” (UNIVERSITY OF CENTRAL FLORIDA RESEARCH FOUNDATION, INC., priority 2021, published 2024).

System: MDA-MB-231 cells
Test: cells
Assay type: cell-based, human

CC(=O)O[C@H]1C(=O)[C@@]2(C)[C@H]([C@H](OC(=O)c3ccccc3)[C@]3(O)C[C@H](OC(=O)[C@H](O)[C@@H](NC(=O)c4ccccc4)c4ccccc4)C(C)=C1C3(C)C)[C@]1(OC(C)=O)CO[C@@H]1C[C@@H]2O [taxol, paclitaxel]
IC50 (Homo sapiens, MDA-MB-231, read-out: IC50 dose): ~50 nM | reduction of MDA-MB-231 viability (free taxol, 43 μg dose, 24 h): ~50%
